The target of data set [1] is T1, (Homo sapiens, UniProt P00918).
T1 construct: pure CA11 enzyme from human erythrocyte; from tissue; host or cells: human erythrocytes (purified enzyme)
In words: Carbonic anhydrase activity, micromethod of Maren (time to lower pH of CO2-saturated carbonate/bicarbonate buffer, phenol red endpoint). The following applies: pure enzyme from human erythrocyte; 0°-4° C.; pH 9.9 to 6.8. In kind it is biochemical. On the procedure:
1. Carbonic anhydrase activity was assayed according to the micromethod of Maren (J. PharmacoI. Exptl. Therap., 130, 26-29, 1960). All solutions and reagents were maintained at 0°-4° C. The final assay mixture contained 16 mM phenol red, added enzyme and 62.5 mM sodium carbonate/bicarbonate. Its volume was kept constant at 0.8 mL. The time required for the added enzyme to lower the pH of CO2-saturated carbonate/bicarbonate buffer from pH 9.9 to 6.8 was measured using the color change of phenol red as endpoint. T1 is the time recorded for the reaction containing no enzyme. T2 is the time recorded for the reaction containing pure CA11 enzyme from human erythrocyte, or an unknown amount in a sample. Enzyme activities (unit) were calculated using the formula:
Unit/ug=(T1 -T2)(T2 *ug protein used in assay)
IC50 of a carbonic anhydrase inhibitor is the concentration that lowers the enzyme activity to half.

Data set [2] is described as follows: Cysteine reactivity probe assay (HPLC). The arrangement: unit not given here. To be noted: cysteine in phosphate buffer pH 7.4, HPLC; unit not given. The source says: An additional measurement made on some compounds of the invention is the cysteine reactivity. This reactivity measurement gives an indication of the likelihood that a compound will react with cysteine residues in the eye, and so is a measure of the likelihood of development of sensitization in the eye to that compound. […] In general, substituents that are more highly electron withdrawing, such as sulfonyl or carbonyl moieties adjacent to the thiazole ring, increase cysteine reactivity.
2. Cysteine reactivity was measured by the following probe assay procedure. Three stock solutions of: A) the CAI compound to be tested in […] phosphate buffer; B) cysteine ([…]) in 50 mM phosphate buffer at pH 7.4; and C) phosphate buffer (50 mM) at pH 7.4, were prepared. Each solution was deoxygenated by bubbling with N2 for 10-15 min.
Reaction mixtures were prepared in triplicate by mixing equal volumes (1 mL) of two stock solutions as follows:
Hydrolytic or other chemical reactivity was detected by comparison of solutions I and II. Cysteine related reactions were detected by comparison of solutions II and III. All samples were assayed using HPLC under constant conditions and over a short period of time to minimize experimental variations in peak heights not related to CAI concentration differences. Each of the three solutions were assayed in sequence to give three sets of experimental values: Ia, IIa, IIIa, Ib, IIb, IIIb, Ic, IIc, IIIc and each set was compared separately. Mean and standard deviations of the three sets were recorded.

Data on 38 compounds can be found in patent publication US5519040A, “Substituted thiazole sulfonamides as antiglaucoma agents” (Allergan, priority 1994, dated 1996).

With `CCCCOc1ncc(S(N)(=O)=O)s1` [2-(1-Butoxy)-5-thiazole sulfonamide], half-maximal inhibition in data set [1] (IC50) required 16 nM. The Cysteine reactivity in data set [2] is less than 0.00005.

On to `CCCCC#Cc1ncc(S(N)(=O)=O)s1` [2-(1-Hexynyl)-5-thiazole sulfonamide], for which the midpoint of inhibition in data set [1], the IC50, lay at 7.7 nM. In addition, the Cysteine reactivity in data set [2] turned out to be 0.001.

As to `CCCCCC(O)c1ncc(S(N)(=O)=O)s1` (stereo not shown) [2-(1-Hydroxyhexyl)-5-thiazole sulfonamide], in data set [1], 10 nM corresponded to half-maximal inhibition (IC50).

Take `NS(=O)(=O)c1cnc(C(=O)C2CC2)s1` [2-(1-Ketocyclopropyl)-5-thiazole sulfonamide]: the IC50 (in general, the concentration that inhibits the measured activity by half) in data set [1] was found to be 3.5 nM. This compound also had a Cysteine reactivity in data set [2] of less than 0.000024.

As for `COCOCC(=O)c1ncc(S(N)(=O)=O)s1` [2-(2-(methoxymethoxy)ethanoyl)-5-thiazole sulfonamide], 10.3 nM corresponded to half-maximal inhibition in data set [1] (IC50).

With `CN(C)CCCC(=O)c1ncc(S(N)(=O)=O)s1` [2-(4-(N,N-dimethyl)aminobutanoyl)-5-thiazole sulfonamide], in data set [1], the IC50 stood at 26 nM.

For the compound `CCS(=O)(=O)c1ncc(S(N)(=O)=O)s1` [2-(Ethylsulfonyl)-5-thiazole sulfonamide, 2-Ethylsulfonyl-5-thiazole sulfonamide], the midpoint of inhibition in data set [1], the IC50, lay at 6.7 nM. Further, the Cysteine reactivity entry in data set [2] is recorded as “reactive”.

Turning to `CCSc1ncc(S(N)(=O)=O)s1` [2-(Ethylthio)-5-thiazole sulfonamide, 2-Ethylthio-5-thiazole sulfonamide], it took 6.3 nM to reach half-maximal inhibition in data set [1] (IC50). Besides, in data set [2], the Cysteine reactivity is listed as less than 0.0000024.

`CN(C)CCN(C)S(=O)(=O)c1ncc(S(N)(=O)=O)s1` [2-(N-Methyl-N-(dimethylamino)ethyl)sulfamyl-5-thiazole sulfonamide] returned an IC50 in data set [1] of 14.5 nM. Besides, in data set [2], the Cysteine reactivity entry was “reactive”.

`CC(C)(C)NS(=O)(=O)c1ncc(S(N)(=O)=O)s1` [2-(N-t-butylsulfamyl)-5-thiazole sulfonamide] returned an IC50 in data set [1] of 5.3 nM.

In turn, `CCCCCC(=O)c1ncc(S(N)(=O)=O)s1` [2-Hexanoyl-5-thiazole sulfonamide, 2-(1-Hexanoyl)-5-thiazole sulfonamide] returned an IC50 in data set [1] of 3.5 nM. The compound also yielded a Cysteine reactivity in data set [2] of 0.00007.

Regarding `CCCCCCc1ncc(S(N)(=O)=O)s1` [2-Hexyl-5-thiazole sulfonamide, 2-(1-Hexyl)-5-thiazole sulfonamide], in data set [1], the IC50 stood at 20.6 nM.

As to `NS(=O)(=O)c1cnc(-c2ccccc2)s1` [2-Phenyl-5-thiazole sulfonamide], the IC50 in data set [1] stood at 20 nM.

`NS(=O)(=O)c1cnc([S+]([O-])c2ccccc2)s1` (stereo not shown) [2-Phenylsulfinyl-5-thiazole sulfonamide]: in data set [1], the 50% inhibitory concentration (IC50) worked out at 12.7 nM. Also, the Cysteine reactivity entry in data set [2] is reported as “reactive”.

In data set [1], `NS(=O)(=O)c1cnc(S(=O)(=O)c2ccccc2)s1` [2-Phenylsulfonyl-5-thiazole sulfonamide] showed a 50% inhibitory concentration (IC50) of 5.5 nM. Moreover, the Cysteine reactivity entry in data set [2] was “reactive”.

In the case of `NS(=O)(=O)c1cnc(Sc2ccccc2)s1` [2-Phenylthio-5-thiazole sulfonamide, 2-Thiophenyl-5-thiazole sulfonamide], in data set [1], half-maximal inhibition (IC50) was put at 5.5 nM. Further, the Cysteine reactivity entry in data set [2] is reported as “N.R”.

The compound `NS(=O)(=O)c1nc2c(s1)CCCC2` [2-Sulfamyl-4,5,6,7-tetrahydrobenzothiazole] displayed an IC50 in data set [1] of 15 nM.

As to `NS(=O)(=O)c1nccs1` [2-Thiazole sulfonamide], 61 nM corresponded to half-maximal inhibition in data set [1] (IC50). Also, in data set [2], the Cysteine reactivity entry is listed as “N.R”.

In data set [1], `COc1ccc(-c2csc(S(N)(=O)=O)n2)cc1` [4-(4-Methoxyphenyl)-2-thiazole sulfonamide] registered an IC50 of 33 nM.

The compound `CCOC(=O)c1csc(S(N)(=O)=O)n1` [4-Carboethoxy-2-thiazole sulfonamide, 4-carboethoxy-2-thiazole sulfonamide] showed an IC50 in data set [1] of 77 nM. Moreover, in data set [2], the Cysteine reactivity is recorded as less than 0.000005.

Regarding `Cc1csc(S(N)(=O)=O)n1` [4-Methyl-2-thiazole sulfonamide], inhibition in data set [1] was half-maximal at 120 nM (IC50). In data set [2], this compound showed a Cysteine reactivity of 0.00005.

With `NS(=O)(=O)c1nc(-c2ccccc2)cs1` [4-Phenyl-2-thiazole sulfonamide], the midpoint of inhibition in data set [1], the IC50, lay at 20 nM.

In the case of `CN1CCN(S(=O)(=O)c2ncc(S(N)(=O)=O)s2)CC1` [4-methyl-1-(2-(5-sulfamylthiazoyl)sulfonyl)piperazine], the half-inhibitory concentration (IC50) in data set [1] came out at 9.3 nM. In data set [2], the Cysteine reactivity result is on record as “reactive”.

Regarding `CCCCC#Cc1cnc(S(N)(=O)=O)s1` [5-(1-Hexynyl)-2-thiazole sulfonamide], in data set [1], half-maximal inhibition (IC50) required 5.6 nM. This compound also came in with a Cysteine reactivity in data set [2] of 0.00019.

In the case of `COC(=O)CCSc1cnc(S(N)(=O)=O)s1` [5-(2-Carbomethoxyethyl)thio-2-thiazole sulfonamide], the half-inhibitory concentration (IC50) in data set [1] stood at 9.1 nM.

In turn, `NS(=O)(=O)c1ncc(SCCO)s1` [5-(2-Hydroxyethyl)thio-2-thiazole sulfonamide] registered an IC50 in data set [1] of 6.6 nM.

Consider `CC(=O)OCCCC(=O)c1cnc(S(N)(=O)=O)s1` [5-(4-acetoxybutanoyl)-2-thiazole sulfonamide], for which it took 8.4 nM to reach half-maximal inhibition in data set [1] (IC50). In addition, the Cysteine reactivity entry in data set [2] was “reactive”.

Turning to `CCSc1cnc(S(N)(=O)=O)s1` [5-(Ethylthio)-2-thiazole sulfonamide], it took 4.2 nM to reach half-maximal inhibition in data set [1] (IC50). For the same compound, the Cysteine reactivity in data set [2] worked out at 0.000024.

In data set [1], `NS(=O)(=O)c1ncc(Sc2ccccc2)s1` [5-(Phenylthio)-2-thiazole sulfonamide] had an IC50 of 2.7 nM. In addition, in data set [2], the Cysteine reactivity turned out to be 0.005.

On to `NS(=O)(=O)c1ncc(C(=O)c2ccccc2)s1` [5-Benzoyl-2-thiazole sulfonamide], for which the IC50 in data set [1] is 5 nM. Further, the Cysteine reactivity result in data set [2] was “reactive”.

In turn, `NS(=O)(=O)c1ncc(Cc2ccccc2)s1` [5-Benzyl-2-thiazole sulfonamide] yielded a half-inhibitory concentration (IC50) in data set [1] of 9.3 nM.

Turning to `NS(=O)(=O)c1ncc(Br)s1` [5-Bromo-2-thiazole sulfonamide], the concentration for half-maximal inhibition (IC50) in data set [1] was 7.8 nM.

In data set [1], `NS(=O)(=O)c1ncc(Cl)s1` [5-Chloro-2-thiazole sulfonamide] came in with an IC50 of 5.9 nM. Further, the Cysteine reactivity in data set [2] is on record as 0.00002.

`COc1ccc(-c2nc(S(N)(=O)=O)sc2Cl)cc1` [5-Chloro-4-(4-methoxyphenyl)-2-thiazole sulfonamide] returned an IC50 in data set [1] of 30 nM.

In data set [1], `CC[S+]([O-])c1cnc(S(N)(=O)=O)s1` (stereo not shown) [5-Ethylsufinyl-2-thiazole sulfonamide, 5-Ethylsulfinyl-2-thiazole sulfonamide] yielded an IC50 of 11.4 nM. For the same compound, the Cysteine reactivity entry in data set [2] is given as “reactive”.

On to `Cc1sc(S(N)(=O)=O)nc1-c1ccccc1` [5-Methyl-4-phenyl-2-thiazole sulfonamide], for which 84 nM corresponded to half-maximal inhibition in data set [1] (IC50). Further, the Cysteine reactivity entry in data set [2] is “N.R”.

In data set [1], `NS(=O)(=O)c1ncc(-c2ccccc2)s1` [5-Phenyl-2-thiazole sulfonamide] returned a half-maximal inhibitory concentration (IC50) of 6 nM.

As for `NS(=O)(=O)c1ncc(S(=O)(=O)c2ccccc2)s1` [5-Phenylsulfonyl-2-thiazole sulfonamide, 5-(Phenylsulfonyl)-2-thiazole sulfonamide], the midpoint of inhibition in data set [1], the IC50, lay at 6 nM. The Cysteine reactivity entry in data set [2] is given as “reactive”.
